Laboratory results published in patent US6737383B1, “Herbicidal oxadiazolidines” (priority 1999, dated 2004).

Experiments:
wild oat = test: Test B pre/postemergence wild oat; format: in vivo, Avena fatua
Summary of the method: (§1)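 Response is a visual 0-to-10 score relative to untreated plants, where 0 means no effect and 10 means complete control, taken twelve to sixteen days after application. Treatments went onto soil at planting and onto foliage of 1- to 4-leaf plants, using a surfactant-containing non-phytotoxic solvent.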

bedstraw = test: Test B pre/postemergence bedstraw; format: in vivo, Galium aparine
Summary of the method: as §1

wheat = test: Test B pre/postemergence wheat; format: in vivo, Triticum aestivum
Summary of the method: as §1

blackgrass = test: Test B pre/postemergence blackgrass; format: in vivo, Alopecurus myosuroides
Summary of the method: as §1

rice = test: Test B flood test rice; format: in vivo, Oryza sativa
Summary of the method: (§2)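 Each value is a visual injury score relative to controls, with 10 meaning complete control and 0 no effect. Evaluation took place twelve to sixteen days after the 2-leaf-stage plants were treated and kept in the greenhouse.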

sugar beet = test: Test B pre/postemergence sugar beet; format: in vivo, Beta vulgaris
Summary of the method: as §1

surinam grass = test: Test B pre/postemergence surinam grass; format: in vivo, Brachiaria decumbens
Summary of the method: as §1

morningglory = test: Test B pre/postemergence morningglory; format: in vivo, Ipomoea hederacea
Summary of the method: as §1

purple nutsedge = test: Test B pre/postemergence purple nutsedge; format: in vivo, Cyperus rotundus
Summary of the method: as §1

smallflower flatsedge = test: Test B flood test smallflower flatsedge; format: in vivo, Cyperus difformis
Summary of the method: as §2

rape = test: Test B pre/postemergence rape; format: in vivo, Brassica napus
Summary of the method: as §1

giant foxtail = test: Test B pre/postemergence giant foxtail; format: in vivo, Setaria faberii
Summary of the method: as §1

crabgrass = test: Test B pre/postemergence crabgrass; format: in vivo, Digitaria sanguinalis
Summary of the method: as §1

bamyardgrass = test: Test B flood test barnyardgrass; format: in vivo, Echinochloa crus-galli
Summary of the method: as §2

pigweed = test: Test B pre/postemergence pigweed; format: in vivo, Amaranthus retroflexus
Summary of the method: as §1

corn = test: Test B pre/postemergence corn; format: in vivo, Zea mays
Summary of the method: as §1

[1] = Preemergence, Rate 62 g/ha, scale of 0 to 10 where 0 is no effect and 10 is complete control
[2] = Preemergence, Rate 250 g/ha, scale of 0 to 10 where 0 is no effect and 10 is complete control
[3] = Preemergence, Rate 500 g/ha, scale of 0 to 10 where 0 is no effect and 10 is complete control
[4] = Rate 62 g/ha, Postemergence, scale 0 to 10 (0 no effect, 10 complete control)
[5] = Rate 125 g/ha, Postemergence, scale of 0 to 10 where 0 is no effect and 10 is complete control
[6] = Rate 250 g/ha, Postemergence, scale of 0 to 10 where 0 is no effect and 10 is complete control
[7] = Rate 500 g/ha, Postemergence, scale 0 to 10, 0 no effect, 10 complete control
[8] = Rate 62 g/ha, headed Pre-emergence (flood test species), scale 0 to 10 (0 no effect, 10 complete control)
[9] = Rate 125 g/ha, Pre-emergence, flood test species, scale 0 to 10 where 0 is no effect and 10 is complete control
[10] = Rate 250 g/ha, Pre-emergence, flood-test species, scale 0 to 10, 0 is no effect, 10 is complete control
[11] = Rate 500 g/ha, Pre-emergence, flood test species, scale 0 to 10 (0 no effect, 10 complete control)

## CC(C)n1c(=O)on(C(=O)N(c2ccc(Cl)cc2Cl)C2CCC2)c1=O [Compound 319]
Wild oat; [1]
  Wild oats plant response rating: 0
Wild oat; Preemergence, Rate 125 g/ha
  Wild oats plant response rating (0 to 10 scale): 0
Wild oat; [2]
  Wild oats plant response rating: 0
Wild oat; [3]
  Wild oats plant response rating: 0
Wild oat; [4]
  Wild oats plant response rating: 0
Wild oat; [5]
  Wild oats plant response rating: 0
Wild oat; [6]
  Plant response rating, Wild oats: 0
bedstraw; [1]
  Bedstraw plant response rating: 0
bedstraw; Preemergence, Rate 125 g/ha
  Bedstraw plant response rating (0 to 10 scale): 0
bedstraw; [2]
  Bedstraw plant response rating: 0
bedstraw; [3]
  Bedstraw plant response rating: 7
bedstraw; [4]
  Bedstraw plant response rating: 0
bedstraw; [5]
  Bedstraw plant response rating: 0
wheat; [1]
  Wheat plant response rating: 0
wheat; Preemergence, Rate 125 g/ha
  Wheat plant response rating (0 to 10 scale): 0
wheat; [2]
  Wheat plant response rating: 0
wheat; [3]
  Wheat plant response rating: 0
wheat; [4]
  Wheat plant response rating: 0
wheat; [5]
  Wheat plant response rating: 0
wheat; [6]
  Plant response rating, Wheat: 0
blackgrass; [1]
  Blackgrass plant response rating: 0
blackgrass; Preemergence, Rate 125 g/ha
  Blackgrass plant response rating (0 to 10 scale): 0
blackgrass; [2]
  Blackgrass plant response rating: 2
blackgrass; [3]
  Blackgrass plant response rating: 4
blackgrass; [4]
  Blackgrass plant response rating: 0
blackgrass; [5]
  Blackgrass plant response rating: 0
blackgrass; [6]
  Plant response rating, Blackgrass: 0
blackgrass; [7]
  Blackgrass plant response rating: 3
rice; [8]
  Rice plant response rating: 0
rice; [9]
  Rice plant response rating: 0
rice; [10]
  Rice plant response rating: 0
rice; [11]
  Rice plant response rating: 0
Sugar beet; [1]
  Sugarbeets plant response rating: 0
Sugar beet; Preemergence, Rate 125 g/ha
  Sugarbeets plant response rating (0 to 10 scale): 0
Sugar beet; [2]
  Sugarbeets plant response rating: 0
Sugar beet; [3]
  Sugarbeets plant response rating: 0
Sugar beet; [4]
  Sugarbeets plant response rating: 0
Sugar beet; [5]
  Sugarbeets plant response rating: 0
Sugar beet; [6]
  Plant response rating, Sugarbeets: 0
Surinam grass; [1]
  B. signalgrass plant response rating: 0
Surinam grass; Preemergence, Rate 125 g/ha
  B. signalgrass plant response rating (0 to 10 scale, 0 is no effect, 10 is complete control): 0
Surinam grass; [2]
  B. signalgrass plant response rating: 2
Surinam grass; [3]
  B. signalgrass plant response rating: 3
Surinam grass; [4]
  B. signalgrass plant response rating: 0
Surinam grass; [5]
  B. signalgrass plant response rating: 0
Surinam grass; [6]
  Plant response rating, B. signalgrass: 0
Surinam grass; [7]
  B. signalgrass plant response rating: 0
morningglory; [1]
  Morningglory plant response rating: 0
morningglory; Preemergence, Rate 125 g/ha
  Morningglory plant response rating (0 to 10 scale): 0
morningglory; [2]
  Morningglory plant response rating: 0
morningglory; [3]
  Morningglory plant response rating: 0
morningglory; [4]
  Morningglory plant response rating: 2
morningglory; [5]
  Morningglory plant response rating: 2
morningglory; [6]
  Plant response rating, Morningglory: 4
Purple nutsedge; [1]
  Nutsedge plant response rating: 0
Purple nutsedge; Preemergence, Rate 125 g/ha
  Nutsedge plant response rating (0 to 10 scale): 0
Purple nutsedge; [2]
  Nutsedge plant response rating: 0
Purple nutsedge; [3]
  Nutsedge plant response rating: 0
Purple nutsedge; [4]
  Nutsedge plant response rating: 0
Purple nutsedge; [5]
  Nutsedge plant response rating: 0
Purple nutsedge; [6]
  Plant response rating, Nutsedge: 0
Smallflower flatsedge; [8]
  S. Flatsedge plant response rating: 0
Smallflower flatsedge; [9]
  S. Flatsedge plant response rating: 0
Smallflower flatsedge; [10]
  S. Flatsedge plant response rating: 0
Smallflower flatsedge; [11]
  S. Flatsedge plant response rating: 0
rape; [1]
  Rape plant response rating: 0
rape; Preemergence, Rate 125 g/ha
  Rape plant response rating (0 to 10 scale): 0
rape; [2]
  Rape plant response rating: 0
rape; [3]
  Rape plant response rating: 0
rape; [4]
  Rape plant response rating: 0
rape; [5]
  Rape plant response rating: 0
rape; [6]
  Plant response rating, Rape: 0
Giant foxtail; [1]
  Giant foxtail plant response rating: 6
Giant foxtail; Preemergence, Rate 125 g/ha
  Giant foxtail plant response rating (0 to 10 scale): 7
Giant foxtail; [2]
  Giant foxtail plant response rating: 9
Giant foxtail; [3]
  Giant foxtail plant response rating: 9
Giant foxtail; [4]
  Giant foxtail plant response rating: 0
Giant foxtail; [5]
  Giant foxtail plant response rating: 0
Giant foxtail; [6]
  Plant response rating, Giant foxtail: 0
crabgrass; [1]
  Crabgrass plant response rating: 0
crabgrass; Preemergence, Rate 125 g/ha
  Crabgrass plant response rating (0 to 10 scale): 0
crabgrass; [2]
  Crabgrass plant response rating: 2
crabgrass; [3]
  Crabgrass plant response rating: 3
crabgrass; [4]
  Crabgrass plant response rating: 0
crabgrass; [5]
  Crabgrass plant response rating: 0
crabgrass; [6]
  Plant response rating, Crabgrass: 0
bamyardgrass; [8]
  Barnyardgrass plant response rating: 0
bamyardgrass; [9]
  Barnyardgrass plant response rating: 0
bamyardgrass; [10]
  Barnyardgrass plant response rating: 0
bamyardgrass; [11]
  Barnyardgrass plant response rating: 2
pigweed; [1]
  Redroot pigweed plant response rating: 0
pigweed; Preemergence, Rate 125 g/ha
  Redroot pigweed plant response rating (0 to 10 scale): 0
pigweed; [2]
  Redroot pigweed plant response rating: 0
pigweed; [3]
  Redroot pigweed plant response rating: 0
pigweed; [4]
  Redroot pigweed plant response rating: 0
pigweed; [5]
  Redroot pigweed plant response rating: 0
pigweed; [6]
  Plant response rating, Redroot pigweed: 0
corn; [1]
  Corn plant response rating: 0
corn; Preemergence, Rate 125 g/ha
  Corn plant response rating (0 to 10 scale): 0
corn; [2]
  Corn plant response rating: 0
corn; [3]
  Corn plant response rating: 0
corn; [4]
  Corn plant response rating: 0
corn; [5]
  Corn plant response rating: 0
corn; [6]
  Plant response rating, Corn: 0
corn; [7]
  Corn plant response rating: 0
